Assay results: the NIST ThermoML archive (doi:10.1016/j.jct.2018.12.002)
± gives the expanded uncertainty stated by the source.

Assay: molar heat capacity at constant pressure
Settings: 1943 K; 101.33 kPa; Liquid; Levitation methods

**Q.** For [Ti] [titanium], which “molar heat capacity at constant pressure” value is on record?
**A.** The value was 44.9 ± 4.3 J/K/mol.
